Measurements reported in US20150306167A1, “ALPINIA SPP. EXTRACTS FOR TREATING IRRITABLE BOWEL SYNDROME” (MEDICAL AND PHARMACEUTICAL INDUSTRY TECHNOLOGY AND …, priority 2012, published 2015).

Columns and labels:
[1] = tested on: 5-HTP induced diarrhea and/or abnormal defecation; experiment: 5-HTP induced diarrhea and/or abnormal defecation animal model; format: in vivo, Male ICR mice; settings: for 5-HTP induced diarrhea (diarrhea score): FIG. 12A; for 5-HTP induced diarrhea (diarrhea score) / number of stools excreted: N=5 mice/group; for number of stools excreted: FIG. 12B, in 30 min; for anti-abnormal defecation effect / activity: purified compounds from Alpinia oxyphylla
Method: Animal Model for Evaluating 5-HTP Induced Diarrhea and/or Abnormal Defecation
Male ICR mice (BioLASCO Taiwan Co., Ltd., Taiwan) were kept in an air-conditioned animal shelter at room temperature of 22° C. to 24° C. with controlled level of humidity (40% to 50%) in a 12-hour light-dark cycle. Each mouse weighed between 30 to 34 g in the beginning of the test. Tap water and standard laboratory rodent chow were provided ad libitum.
[…], and each mice in the test group was given two doses of the Alpinia spp. extract of this invention (i.e., 500 mg/kg, 1,000 mg/kg, or 2,000 mg/kg) orally on day 1, and a third dose on day 2; and one dose of 5-HTP (i.p., 10 mg/kg) just 60 minutes after the administration of the third dose of the Alpinia spp. extract. In some occasions, the Alpinia spp. extracts of this invention were given intraperitoneally instead of orally. For comparison purpose, loperamide hydrochloride (oral; 2 mg/kg), ondansteron hydrochloride (oral; 2 mg/kg) or graniserton hydrochloride (oral; 2 mg/kg) were given once respectively to the control animals just 30 minutes prior to the administration of 5-HTP. Thirty minutes after 5-HTP injection, defecation of each animal was observed, with number of stools excreted for 30 min and diarrhea score respectively recorded accordingly. The diarrhea score was designed to describe consistency of stool using an arbitrary score scale from 0 to 3, with 0 representing solid form of stool, 1 representing loose form of stool, 2 representing partially liquid-like form of stool, and 3 representing watery form of stool.
(§1) All results are expressed as means±STD; n refers to animals in each group. Differences between animals of each group were compared by one-way
(§2) ANOVA followed by Dunnett's t test. A p value less than or equal to 0.05 was considered to be statistically significant.

[2] = tested on: 5-HTP induced visceral hypersensitivity (AWR); experiment: Visceral hypersensitivity by behavioral response, AWR score after 5-HTP; format: in vivo, Male Sprague-Dawley rats; settings: for AWR score: body arching and lifting of pelvic structures / AWR score: lifting abdomen / AWR scores compared with control rats: 5-HTP rats; for anti-abdominal pain activity (or anti-visceral hypersensitivity): purified compounds from Alpinia oxyphylla
Method: Animal Model for Evaluating Chronic Visceral Hypersensitivity by Measuring […] Withdrawal Reflex (AWR)
In this model, behavioral response was studied by measuring the AWR, which is an involuntary motor reflex similar to visceromotor reflex. The AWR was graded with the intensity of stimulus.
Male Sprague-Dawley rats (BioLASCO Taiwan Co., Ltd., Taiwan) were kept in an air-conditioned animal shelter at room temperature of 22° C. to 24° C. with controlled level of humidity (40% to 50%) in a 12-hour light-dark cycle. Each rat weighed between 200 to 350 g in the beginning of the test. Tap water and standard laboratory rodent chow were provided ad libitum. Unless specifically indicated, each group included 6 rats, and experiments were conducted without fasting the animals. The plant extracts and positive control drugs were given to the animals either orally or intraperitoneally.
Behavioral studies were assessed in according to previously described procedures (AL-CHAER et al., Gastroenterology 2000, 119:1276-1285). Briefly, the rats were then housed in small Lucite cubicles (20×8×8 cm) on an elevated Plexiglas platform and allowed to wake up and adapt (1 hr). Animal was injected subcutaneously with a dose of 5-HTP (10 mg/kg) to induce visceral hypersensitivity, and behavioral response was studied by measuring the AWR. Measurement of the AWR consisted of visual observation of the animal response by blinded observers and assignments of an AWR score: 0, no behavioral response; 1, brief head movement followed by immobility; 2, mild contraction of abdominal muscles without lifting the abdomen off the platform; 3, strong contraction of the abdominal muscles and lifting abdomen off the platform; 4, severe contraction of the abdominal muscle manifested by body arching and lifting of pelvic structures. Behavioral measurements were repeated by two different blinded observers.
as §1, §2

[3] = tested on: IBS patients; settings: reported, cited from earlier work

Q: With C=C(C)[C@]1(O)CC[C@]2(C)CC(=O)C=C(C)[C@H]2C1 [PDC-2453, 7-epi-teucrenone] as the compound, how does the “5-HTP induced diarrhea (diarrhea score)” value [1] read?
A: The value was “capable of suppressing 5-HTP induced diarrhea”.

Q: What about the “number of stools excreted” value [1] of the same compound?
A: The value was “reducing the number of stools excreted”.

Q: And the “anti-abnormal defecation effect / activity” value [1]?
A: Its value is “possess anti-abnormal defecation activity”.

Q: With C=C(C)[C@@]1(O)CC[C@]2(C)CC(=O)C=C(C)[C@H]2C1 [PDC-2464, Teucrenone] as the compound, how does the “AWR score: body arching and lifting of pelvic structures” value (“AWR score: body arching and lifting” below) ([2]; 5 mg/kg i.p., Table 3) read?
A: The value was 1.75 ± 0.16.

Q: What about the “AWR score: lifting abdomen” value ([2]; 5 mg/kg i.p., Table 3) of the same compound?
A: The value was 1.60 ± 0.11.

Q: What about the “AWR scores compared with control rats” value [2] of the same compound?
A: The value was “significantly lower”.

Q: What about the “anti-abdominal pain activity (or anti-visceral hypersensitivity)” value [2] of the same compound?
A: The value was “proved to possess anti-abdominal pain activity”.

Q: What about the “5-HTP induced diarrhea (diarrhea score)” value [1] of the same compound?
A: Its value is “capable of suppressing 5-HTP induced diarrhea”.

Q: What about the “number of stools excreted” value [1] of the same compound?
A: The value was “reducing the number of stools excreted”.

Q: And the “anti-abnormal defecation effect / activity” value [1]?
A: Its value is “possess anti-abnormal defecation activity”.

Q: Which results are given for C=C(C)[C@@H]1CC[C@]2(C)CCC(=O)C(C)=C2[C@H]1O [PDC-2460, 6-α-hydroxy-7-epi-α-cyperone]?
A: 5-HTP induced diarrhea (diarrhea score) [1]: capable of suppressing 5-HTP induced diarrhea; number of stools excreted [1]: reducing the number of stools excreted; anti-abnormal defecation effect / activity [1]: possess anti-abnormal defecation activity

Q: With COc1cc(O)c2c(=O)cc(-c3ccccc3)oc2c1 [PDC-2521, Tectochrysin] as the compound, how does the “anti-abnormal defecation effect / activity” value [1] read?
A: Its value is “possess anti-abnormal defecation activity”.

Q: For [H]/N=C(/NCCCCC)N/N=C/c1c[nH]c2ccc(OC)cc12 [tegaserod], which “therapeutic effects on IBS” value [3] is on record?
A: Its value is “limited therapeutic effects on IBS”.

Q: And the “risk of IBS patients in developing cardiovascular diseases” value ([3]; retracted from the market in 2007)?
A: Its value is “increases significantly”.

Q: Which “AWR score: body arching and lifting” value ([2]; 100 μg/kg i.p., n = 1, Table 1) does the source give for CN1C2CCCC1CC(NC(=O)c1nn(C)c3ccccc13)C2 (stereo not shown) [Granisetron, granisetron, reference compound] here?
A: Its value is 1.90.

Q: And the “AWR score: lifting abdomen” value ([2]; 100 μg/kg i.p., n = 1, Table 1)?
A: Its value is 2.80.

Q: With Cc1[nH]cnc1CN1CCc2c(c3ccccc3n2C)C1=O [alosetron] as the compound, how does the “IBS patients with improved clinical symptoms” value [3] read?
A: Its value is “about 50%”.

Q: What about the “IBS patients with side effects such as constipation and ischemia colitis” value [3] of the same compound?
A: Its value is 30-35%.

Q: With COc1cc(O)c2c(=O)c(O)c(-c3ccccc3)oc2c1 [PDC-2524, Isalpinin] as the compound, how does the “AWR score: body arching and lifting” value ([2]; 2.5 mg/kg i.p., Table 3) read?
A: Its value is 2.40 ± 0.

Q: And the “AWR score: lifting abdomen” value ([2]; 2.5 mg/kg i.p., Table 3)?
A: Its value is 2.27 ± 0.06.

Q: What about the “AWR score: body arching and lifting” value ([2]; 5 mg/kg i.p., Table 3) of the same compound?
A: Its value is 2.10 ± 0.

Q: And the “AWR score: lifting abdomen” value ([2]; 5 mg/kg i.p., Table 3)?
A: Its value is 1.87 ± 0.06.

Q: What about the “AWR score: body arching and lifting” value ([2]; 10 mg/kg i.p., n = 1, Table 3) of the same compound?
A: The value was 1.60.

Q: What about the “AWR score: lifting abdomen” value ([2]; 10 mg/kg i.p., n = 1, Table 3) of the same compound?
A: The value was 1.20.

Q: What about the “AWR scores compared with control rats” value [2] of the same compound?
A: The value was “significantly lower”.

Q: What about the “anti-abdominal pain activity (or anti-visceral hypersensitivity)” value [2] of the same compound?
A: Its value is “proved to possess anti-abdominal pain activity”.

Q: What does the source list for CC(C)[C@@H]1CCC(=O)C2=C1[C@H](O)[C@](C)(O)CC2 [PDC-2454, Oxyphellenodiol A]?
A: 5-HTP induced diarrhea (diarrhea score) [1]: capable of suppressing 5-HTP induced diarrhea; number of stools excreted [1]: reducing the number of stools excreted; anti-abnormal defecation effect / activity [1]: possess anti-abnormal defecation activity
